According to PubChem BioAssay (NCI):
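Each compound was tested at five concentrations against cells in 96-well plates for 48 hours. GI50 = concentration required for 50% inhibition of growth. TGI denotes the concentration required for complete inhibition of growth.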

Assays:
Assay in all cases: DTP human tumour cell line panel, 48 h
SNB-19 CNS = test system: SNB-19 CNS
SR leukemia = test system: SR leukemia
SK-MEL-28 melanoma = test system: SK-MEL-28 melanoma
HOP-62 NSCLC = test system: HOP-62 NSCLC
OVCAR-8 ovarian = test system: OVCAR-8 ovarian
NCI-H522 lung = test system: NCI-H522 lung
MOLT-4 leukemia = test system: MOLT-4 leukemia
A549 NSCLC = test system: A549 NSCLC
SNB-75 CNS = test system: SNB-75 CNS
NCI-H23 lung = test system: NCI-H23 lung

## COc1ccc(C(=O)/C=C/c2ccc(OCC(=O)N3CCN(c4ccccc4)CC3)cc2)cc1
SNB-19 CNS
  TGI: 65.1 µM
SR leukemia
  TGI: > 60.4 µM
SK-MEL-28 melanoma
  TGI: > 100 µM
HOP-62 NSCLC
  TGI: > 79.6 µM
OVCAR-8 ovarian
  TGI: > 100 µM
NCI-H522 lung
  TGI: > 45.8 µM
MOLT-4 leukemia
  TGI: > 100 µM
A549 NSCLC
  TGI: > 100 µM
SNB-75 CNS
  TGI: 62.5 µM
NCI-H23 lung
  TGI: > 100 µM

## CCCCn1sc(=O)n(Cc2ccc(CNC(=O)OCc3ccc4c(Br)cc(Br)c(O)c4n3)cc2)c1=O
SNB-19 CNS
  GI50: 2.66 µM
  TGI: > 100 µM
SR leukemia
  GI50: 0.404 µM
  TGI: > 100 µM
SK-MEL-28 melanoma
  TGI: > 100 µM
HOP-62 NSCLC
  GI50: 0.749 µM
  TGI: > 100 µM
OVCAR-8 ovarian
  GI50: 0.415 µM
  TGI: > 81.4 µM
NCI-H522 lung
  GI50: 0.264 µM
MOLT-4 leukemia
  GI50: 0.895 µM
  TGI: > 100 µM
A549 NSCLC
  GI50: 3.76 µM
  TGI: > 100 µM
SNB-75 CNS
  GI50: 0.499 µM
  TGI: > 100 µM
NCI-H23 lung
  GI50: 0.7 µM
  TGI: > 100 µM

## CCN1C(=O)N(c2ccccc2)C2NN=c3s/c(=C4\C(=O)N(C(C)C)c5ccccc54)c(=O)n3C21 (stereo not given)
SNB-19 CNS
  GI50: 2.1 µM
  TGI: > 100 µM
SR leukemia
  GI50: 0.553 µM
  TGI: > 100 µM
SK-MEL-28 melanoma
  GI50: 2.71 µM
  TGI: > 100 µM
HOP-62 NSCLC
  GI50: 0.689 µM
  TGI: 18.9 µM
OVCAR-8 ovarian
  GI50: 2.05 µM
  TGI: > 100 µM
NCI-H522 lung
  GI50: 1.1 µM
  TGI: > 77.9 µM
MOLT-4 leukemia
  GI50: 1.58 µM
  TGI: > 100 µM
A549 NSCLC
  GI50: 1.43 µM
  TGI: > 40.5 µM
SNB-75 CNS
  GI50: 0.253 µM
  TGI: 4.79 µM
NCI-H23 lung
  GI50: 1.47 µM
  TGI: 28.2 µM

## C#CCOc1cccc(Nc2ncnc3ccc(NC(=O)CCl)cc23)c1
SNB-19 CNS
  GI50: 1.88 µM
  TGI: 81.9 µM
SR leukemia
  GI50: 0.0743 µM
  TGI: 17.9 µM
SK-MEL-28 melanoma
  GI50: 5.15 µM
  TGI: 27 µM
HOP-62 NSCLC
  GI50: 4.2 µM
  TGI: > 53.2 µM
OVCAR-8 ovarian
  GI50: 0.353 µM
  TGI: > 65 µM
NCI-H522 lung
  GI50: 0.777 µM
  TGI: 3.97 µM
MOLT-4 leukemia
  GI50: 0.0864 µM
  TGI: > 89.5 µM
A549 NSCLC
  GI50: 0.225 µM
  TGI: > 44 µM
SNB-75 CNS
  GI50: 1.87 µM
  TGI: > 100 µM
NCI-H23 lung
  GI50: 2.87 µM
  TGI: 29.9 µM

## CCC[CH2][Sn]([CH2]CCC)([O]C(=O)C1CCC(=O)N1)[O]C(=O)C1CCC(=O)N1 (stereo not given)
SNB-19 CNS
  GI50: 0.303 µM
  TGI: 0.909 µM
SR leukemia
  GI50: 0.18 µM
  TGI: 0.526 µM
SK-MEL-28 melanoma
  GI50: 0.258 µM
  TGI: 0.654 µM
HOP-62 NSCLC
  GI50: 0.619 µM
  TGI: 2.04 µM
OVCAR-8 ovarian
  GI50: 0.319 µM
  TGI: 1.01 µM
NCI-H522 lung
  GI50: 0.0263 µM
  TGI: 0.11 µM
MOLT-4 leukemia
  GI50: 0.245 µM
  TGI: 0.755 µM
A549 NSCLC
  GI50: 2.01 µM
  TGI: 3.64 µM
SNB-75 CNS
  GI50: 0.221 µM
  TGI: 0.752 µM
NCI-H23 lung
  GI50: 0.147 µM
  TGI: 0.384 µM

## Cc1ccc(C)c(NC(=O)CCc2nc(=S)[nH][nH]2)c1
SNB-19 CNS
  TGI: > 100 µM
SR leukemia
  TGI: > 100 µM
SK-MEL-28 melanoma
  TGI: > 100 µM
HOP-62 NSCLC
  TGI: > 100 µM
OVCAR-8 ovarian
  TGI: > 100 µM
NCI-H522 lung
  TGI: > 100 µM
MOLT-4 leukemia
  TGI: > 100 µM
A549 NSCLC
  TGI: > 100 µM
SNB-75 CNS
  TGI: > 100 µM
NCI-H23 lung
  TGI: > 100 µM

## CC1=C[S+](c2ccccc2)c2cccc3cc4ccccc4c1c23 (stereo not given)
SNB-19 CNS
  GI50: 0.35 µM
  TGI: 1.5 µM
SR leukemia
  GI50: 0.297 µM
  TGI: 2.14 µM
SK-MEL-28 melanoma
  GI50: 0.511 µM
  TGI: 1.89 µM
HOP-62 NSCLC
  GI50: 0.486 µM
OVCAR-8 ovarian
  GI50: 0.158 µM
  TGI: 3.73 µM
NCI-H522 lung
  GI50: 0.297 µM
  TGI: 1.57 µM
MOLT-4 leukemia
  GI50: 0.572 µM
  TGI: 9.26 µM
A549 NSCLC
  GI50: 0.309 µM
  TGI: 3.59 µM
SNB-75 CNS
  GI50: 0.452 µM
  TGI: 1.55 µM
NCI-H23 lung
  GI50: 1.09 µM
  TGI: 2.86 µM

## CCCSC1=NC2C(N(CC)C(=O)N2CC)N1/N=C/C=C/c1ccccc1[N+](=O)[O-] (stereo not given)
SNB-19 CNS
  GI50: 3.74 µM
  TGI: > 100 µM
SR leukemia
  GI50: 1.1 µM
  TGI: 5.53 µM
SK-MEL-28 melanoma
  GI50: 6.96 µM
  TGI: > 100 µM
HOP-62 NSCLC
  GI50: 3.79 µM
  TGI: > 100 µM
OVCAR-8 ovarian
  GI50: 3.76 µM
  TGI: > 100 µM
NCI-H522 lung
  GI50: 2.12 µM
  TGI: 41 µM
MOLT-4 leukemia
  GI50: 3.36 µM
  TGI: > 100 µM
A549 NSCLC
  GI50: 4.25 µM
  TGI: > 100 µM
SNB-75 CNS
  GI50: 2.26 µM
  TGI: 54.7 µM
NCI-H23 lung
  GI50: 4.04 µM
  TGI: > 100 µM

## CCc1nc(Cl)nc(Cl)c1Cl
SNB-19 CNS
  TGI: 11.3 µM
SR leukemia
  TGI: 0.444 µM
SK-MEL-28 melanoma
  TGI: 17.7 µM
HOP-62 NSCLC
  TGI: 21.2 µM
OVCAR-8 ovarian
  TGI: 5.34 µM
NCI-H522 lung
  TGI: 0.234 µM
MOLT-4 leukemia
  TGI: 1.68 µM
A549 NSCLC
  TGI: 9.56 µM
SNB-75 CNS
  TGI: 18.3 µM
NCI-H23 lung
  TGI: 5.9 µM

## Cc1nc2n(c(=O)c1CCN1CCC(c3noc4cc(F)ccc34)CC1)CCCC2
SNB-19 CNS
  GI50: > 50 µM
  TGI: > 50 µM
SR leukemia
  GI50: > 50 µM
  TGI: > 50 µM
SK-MEL-28 melanoma
  GI50: > 50 µM
  TGI: > 50 µM
HOP-62 NSCLC
  GI50: > 50 µM
  TGI: > 50 µM
OVCAR-8 ovarian
  GI50: > 50 µM
  TGI: > 50 µM
NCI-H522 lung
  GI50: > 50 µM
  TGI: > 50 µM
MOLT-4 leukemia
  GI50: > 50 µM
  TGI: > 50 µM
A549 NSCLC
  GI50: > 50 µM
  TGI: > 50 µM
SNB-75 CNS
  GI50: > 50 µM
  TGI: > 50 µM
NCI-H23 lung
  GI50: > 50 µM
  TGI: > 50 µM

## COc1cnc2c(c1)C(=O)c1c-2n(CCCN2CCCC2)c(=O)c2cc(F)ccc12
SNB-19 CNS
  GI50: 0.24 µM
  TGI: 2.74 µM
SR leukemia
  GI50: 0.144 µM
  TGI: 1.26 µM
SK-MEL-28 melanoma
  GI50: 2.49 µM
  TGI: 14.7 µM
HOP-62 NSCLC
  GI50: 0.212 µM
  TGI: 0.687 µM
OVCAR-8 ovarian
  GI50: 0.206 µM
  TGI: 1.05 µM
NCI-H522 lung
  GI50: 0.0819 µM
  TGI: 1.23 µM
MOLT-4 leukemia
  GI50: 0.0591 µM
  TGI: 0.414 µM
A549 NSCLC
  GI50: 0.0936 µM
  TGI: 0.351 µM
SNB-75 CNS
  GI50: 0.327 µM
  TGI: 5.44 µM
NCI-H23 lung
  GI50: 0.331 µM
  TGI: 2.4 µM

## O=[N+]([O-])c1ccc2ncccc2c1Cl
SNB-19 CNS
  GI50: 4.2 µM
  TGI: 23.4 µM
SR leukemia
  GI50: 0.308 µM
  TGI: 4.12 µM
SK-MEL-28 melanoma
  GI50: 6.29 µM
  TGI: 20.8 µM
HOP-62 NSCLC
  GI50: 5.64 µM
  TGI: > 100 µM
OVCAR-8 ovarian
  GI50: 2.96 µM
  TGI: 8.69 µM
NCI-H522 lung
  GI50: 2.74 µM
  TGI: 6.59 µM
MOLT-4 leukemia
  GI50: 3.07 µM
  TGI: 12.2 µM
A549 NSCLC
  GI50: 3.29 µM
  TGI: > 100 µM
SNB-75 CNS
  GI50: 4.67 µM
  TGI: > 100 µM
NCI-H23 lung
  GI50: 6.96 µM
  TGI: 29.8 µM

## O=C(NCCCCCCCCNC(=O)c1cccc2ccccc12)c1cccc2ccccc12
SNB-19 CNS
  TGI: > 59.5 µM
SR leukemia
  TGI: > 100 µM
SK-MEL-28 melanoma
  TGI: > 94.4 µM
HOP-62 NSCLC
  TGI: 13.5 µM
OVCAR-8 ovarian
  TGI: 79.5 µM
NCI-H522 lung
  TGI: > 46.4 µM
MOLT-4 leukemia
  TGI: > 100 µM
A549 NSCLC
  TGI: > 100 µM
SNB-75 CNS
  TGI: 13.2 µM
NCI-H23 lung
  TGI: > 79.6 µM

## CCC1CCc2nc3sc(C(=O)Nc4ccccc4C)c(N)c3cc2C1 (stereo not given)
SNB-19 CNS
  GI50: 0.911 µM
  TGI: > 100 µM
SR leukemia
  GI50: 0.196 µM
  TGI: 14.6 µM
SK-MEL-28 melanoma
  GI50: 0.623 µM
  TGI: > 100 µM
HOP-62 NSCLC
  GI50: 0.674 µM
  TGI: > 100 µM
OVCAR-8 ovarian
  GI50: > 100 µM
  TGI: > 100 µM
NCI-H522 lung
  GI50: 0.775 µM
  TGI: > 100 µM
MOLT-4 leukemia
  GI50: 0.661 µM
  TGI: > 100 µM
A549 NSCLC
  GI50: 0.616 µM
  TGI: > 100 µM
SNB-75 CNS
  GI50: 0.312 µM
  TGI: > 100 µM
